The subject of this assay is IL-17A-induced G-CSF production in human normal keratinocyte (NHK). The experiment in a line: NHK assay: IL-17A-induced G-CSF production in normal human keratinocytes. The format is cell-based. Particulars: Homo sapiens, Keratinocyte, 24 h, IL-17A 5 ng/mL, class of the average IC50 where tested more than once. How it is done:
IL-17A acts directly on keratinocytes through binding to dimeric receptor IL-17RA/RC and drives the production of a number of inflammatory mediators known to be elevated in psoriasis lesional tissue. IL-17A small molecule inhibitors that block the IL-17A to interact with IL-17R would inhibit the IL-17A signaling in its targeted cells such as keratinocytes. The compound functional activity is evaluated for its impact on IL-17A-induced G-CSF production in human normal keratinocyte (NHK).
Adult normal human keratinocytes are cultured in keratinocyte growth medium (Lonza) in a flask till reaching ~90% confluence, then cells are transferred to a 384-well plate at density of 3000-4000 cell/well. Recombinant human IL-17A (Gibco PHC9174) is pre-incubated with titrated compound or DMSO for 1 h at rt then added to the cell culture plate. The final concentration of IL-17A is 5 ng/mL and DMSO is 0.2%, in the culture containing 5% FBS. Cells are cultured/treated for 24 h at 37° C. Supernatants are collected and G-CSF production is measured through HTRF technology using Human G-CSF Kit (CisBio). G-CSF concentration was extrapolated from the standard curve and IC50 is determined using GraphPad Prism. Cell viability is also evaluated using CellTiter-Glo kit (Promega) and effect of compound on cell viability is compared to DMSO control.

Broadly, the IC50 is the concentration that gives 50% inhibition. A low value points to greater potency in that assay. Molecule `O=C(N[C@H](c1cn2ncc(C[C@@H]3C(=O)NCC[C@H]3C(F)(F)F)cc2n1)C1CCC(F)(F)CC1)c1nonc1C1CC1` (relative stereo) [Example 3, 4-Cyclopropyl-N—[(S)-(4,4-difluorocyclohexyl)-[7-[[(3S*,4R*)-2-oxo-4-(trifluoromethyl)-3-piperidyl]methyl]imidazo[1,2-b]pyridazin-2-yl]methyl]-1,2,5-oxadiazole-3-carboxamide] gave an IC50 of over 4 µM. With `O=C(N[C@H](c1cn2ncc(C[C@H]3C(=O)NCC[C@@H]3C(F)(F)F)cc2n1)C1CCC(F)(F)CC1)c1nonc1C1CC1` (relative stereo) [Example 4, 4-Cyclopropyl-N—[(S)-(4,4-difluorocyclohexyl)-[7-[[(3R*,4S*)-2-oxo-4-(trifluoromethyl)-3-piperidyl]methyl]imidazo[1,2-b]pyridazin-2-yl]methyl]-1,2,5-oxadiazole-3-carboxamide], the IC50 was in the range of 0.4 to 4 µM. For `O=C(N[C@H](c1cn2ncc(C[C@H]3CC[C@H](C(F)(F)F)NC3=O)cc2n1)C1CCC(F)(F)CC1)c1nonc1C1CC1` (relative stereo) [Example 29, 4-Cyclopropyl-N—((S)-(4,4-difluorocyclohexyl)(7-(((3R*,6R*)-2-oxo-6-(trifluoromethyl)piperidin-3-yl)methyl)imidazo[1,2-b]pyridazin-2-yl)methyl)-1,2,5-oxadiazole-3-carboxamide] the value was 0.4 to 4 µM; for `O=C(N[C@H](c1cn2ncc(C[C@H]3CC[C@@H](C(F)(F)F)NC3=O)cc2n1)C1CCC(F)(F)CC1)c1nonc1C1CC1` (relative stereo) [Example 30, 4-Cyclopropyl-N—((S)-(4,4-difluorocyclohexyl)(7-(((3R*,6S*)-2-oxo-6-(trifluoromethyl)piperidin-3-yl)methyl)imidazo[1,2-b]pyridazin-2-yl)methyl)-1,2,5-oxadiazole-3-carboxamide], over 4 µM; for `O=C(N[C@H](c1cn2ncc(C[C@@H]3CC[C@H](C(F)(F)F)NC3=O)cc2n1)C1CCC(F)(F)CC1)c1nonc1C1CC1` (relative stereo) [Example 31, 4-Cyclopropyl-N—((S)-(4,4-difluorocyclohexyl)(7-(((3S*,6R*)-2-oxo-6-(trifluoromethyl)piperidin-3-yl)methyl)imidazo[1,2-b]pyridazin-2-yl)methyl)-1,2,5-oxadiazole-3-carboxamide], under 0.4 µM. The result for `O=C(N[C@H](c1cn2ncc(C[C@@H]3CC[C@@H](C(F)(F)F)NC3=O)cc2n1)C1CCC(F)(F)CC1)c1nonc1C1CC1` (relative stereo) [Example 32, 4-Cyclopropyl-N—((S)-(4,4-difluorocyclohexyl)(7-(((3S*,6S*)-2-oxo-6-(trifluoromethyl)piperidin-3-yl)methyl)imidazo[1,2-b]pyridazin-2-yl)methyl)-1,2,5-oxadiazole-3-carboxamide] reads over 4 µM; that for `O=C(N[C@H](c1cn2ncc(C[C@H]3C[C@@H](C(F)(F)F)CNC3=O)cc2n1)C1CCC(F)(F)CC1)c1nonc1C1CC1` (relative stereo) [Example 33, 4-Cyclopropyl-N—((S)-(4,4-difluorocyclohexyl)(7-(((3R*,5R*)-2-oxo-5-(trifluoromethyl)piperidin-3-yl)methyl)imidazo[1,2-b]pyridazin-2-yl)methyl)-1,2,5-oxadiazole-3-carboxamide], 0.4 to 4 µM; that for `O=C(N[C@H](c1cn2ncc(C[C@H]3C[C@H](C(F)(F)F)CNC3=O)cc2n1)C1CCC(F)(F)CC1)c1nonc1C1CC1` (relative stereo) [Example 34, 4-Cyclopropyl-N—((S)-(4,4-difluorocyclohexyl)(7-(((3R*,5S*)-2-oxo-5-(trifluoromethyl)piperidin-3-yl)methyl)imidazo[1,2-b]pyridazin-2-yl)methyl)-1,2,5-oxadiazole-3-carboxamide], over 4 µM. In the case of `CC(C)(CC[C@H](NC(=O)c1nonc1C1CC1)c1cn2ncc([C@@H](O)[C@H]3C[C@@H](C(F)(F)F)NC3=O)cc2n1)C(F)(F)F` (relative stereo) [Example 66, 4-Cyclopropyl-N—((S)-5,5,5-trifluoro-1-(7-((S*)-hydroxy((3R*,5S)-2-oxo-5-(trifluoromethyl)pyrrolidin-3-yl)methyl)imidazo[1,2-b]pyridazin-2-yl)-4,4-dimethylpentyl)-1,2,5-oxadiazole-3-carboxamide], the IC50 was in the range of 0.4 to 4 µM. For `CC(C)(CC[C@H](NC(=O)c1nonc1C1CC1)c1cn2ncc([C@@H](O)[C@@H]3C[C@@H](C(F)(F)F)NC3=O)cc2n1)C(F)(F)F` (relative stereo) [Example 67, 4-Cyclopropyl-N—((S)-5,5,5-trifluoro-1-(7-((S*)-hydroxy((3S*,5S)-2-oxo-5-(trifluoromethyl)pyrrolidin-3-yl)methyl)imidazo[1,2-b]pyridazin-2-yl)-4,4-dimethylpentyl)-1,2,5-oxadiazole-3-carboxamide] the value was over 4 µM; for `C[C@@H]1C[C@@H](Cc2cnn3cc([C@@H](NC(=O)c4nonc4C4CC4)C4CCC(F)(F)CC4)nc3c2)C(=O)N1` (relative stereo) [Example 84, Cyclopropyl-N—((S)-(4,4-difluorocyclohexyl)(7-(((3R*,5R*)-5-methyl-2-oxopyrrolidin-3-yl)methyl)imidazo[1,2-b]pyridazin-2-yl)methyl)-1,2,5-oxadiazole-3-carboxamide], over 4 µM; for `C[C@H]1CNC(=O)[C@@H]1Cc1cnn2cc([C@@H](NC(=O)c3nonc3C3CC3)C3CCC(F)(F)CC3)nc2c1` (relative stereo) [Example 87, 4-Cyclopropyl-N—[(S)-(4,4-difluorocyclohexyl)-[7-[[(3R*,4R*)-4-methyl-2-oxo-pyrrolidin-3-yl]methyl]imidazo[1,2-b]pyridazin-2-yl]methyl]-1,2,5-oxadiazole-3-carboxamide], over 4 µM. For `CC[C@@H]1C[C@@H](Cc2cnn3cc([C@@H](NC(=O)c4nonc4C4CC4)C4CCC(F)(F)CC4)nc3c2)C(=O)N1` (relative stereo) [Example 90, 4-Cyclopropyl-N—[(S)-(4,4-difluorocyclohexyl)-[7-[[(3R*,5R*)-5-ethyl-2-oxo-pyrrolidin-3-yl]methyl]imidazo[1,2-b]pyridazin-2-yl]methyl]-1,2,5-oxadiazole-3-carboxamide] the value was under 0.4 µM; for `O=C(N[C@H](c1cn2ncc(CC3CC(C(F)(F)F)CNC3=O)cc2n1)C1CCC(F)(F)CC1)c1nonc1C1CC1` (single isomer, unassigned) [Example 35, 4-Cyclopropyl-N-((1S)-(4,4-difluorocyclohexyl)(7-(((3S*)-2-oxo-5-(trifluoromethyl)piperidin-3-yl)methyl)imidazo[1,2-b]pyridazin-2-yl)methyl)-1,2,5-oxadiazole-3-carboxamide], 0.4 to 4 µM.

`Cc1nonc1C(=O)N[C@@H](CCC(C)(C)C(F)(F)F)c1cn2ncc(C[C@H]3C[C@@H](C(F)(F)F)NC3=O)cc2n1` (single isomer, unassigned) [Example 37] registered an IC50 of under 0.4 µM. With `C[C@@]1(C(F)(F)F)CC(Cc2cnn3cc([C@@H](NC(=O)c4nonc4C4CC4)C4CCC(F)(F)CC4)nc3c2)C(=O)N1` (single isomer, unassigned) [Example 55, 4-Cyclopropyl-N—((S)-(4,4-difluorocyclohexyl(7-(((3S*,5S)-5-methyl-2-oxo-5-(trifluoromethyl)pyrrolidine-3-yl)methyl)imidazo[1,2-b]pyrrolidin-2-yl)methyl)-1,2,5-oxadiazole-3-carboxamide], the IC50 was under 0.4 µM. The result for `CC(C)(CC[C@H](NC(=O)c1nonc1C1CC1)c1cn2ncc(CC3C[C@@](C)(C(F)(F)F)NC3=O)cc2n1)C(F)(F)F` (single isomer, unassigned) [Example 57, 4-Cyclopropyl-N—((S)-5,5,5-trifluoro-4,4-dimethyl-1-(7-(((3S*,5S)-5-methyl-2-oxo-5-(trifluoromethyl)pyrrolidin-3-yl)methyl)imidazo[1,2-b]pyridazin-2-yl)pentyl)-1,2,5-oxadiazole-3-carboxamide] reads under 0.4 µM; that for `COC[C@]1(Cc2cnn3cc([C@@H](NC(=O)c4nonc4C4CC4)C4CCC(F)(F)CC4)nc3c2)C[C@@H](C(F)(F)F)NC1=O` (single isomer, unassigned) [Example 99], under 0.4 µM. For `Cc1nonc1C(=O)N[C@H](c1cn2ncc([C@@](C)(O)[C@@]3(C)C[C@@H](C(F)(F)F)NC3=O)cc2n1)C1CCC(F)(F)CC1` [Example 106, N—((S)-(4,4-Difluorocyclohexyl)(7-((R)-1-hydroxy-1-((3R,5S)-3-methyl-2-oxo-5-(trifluoromethyl)pyrrolidin-3-yl)ethyl)imidazo[1,2-b]pyridazin-2-yl)methyl)-4-methyl-1,2,5-oxadiazole-3-carboxamide] the value was under 0.4 µM.

For the origin of these results see patent publication US20260258048A1, “LACTAM-CONTAINING IMIDAZOPYRIDAZINE IL-17 INHIBITOR COMPOUNDS” (Janssen Pharmaceutica NV, priority 2023, published 2026).
